Results from patent US4759917A, “Oxidative dissolution of gallium arsenide and separation of gallium from arsenic” (priority 1987, dated 1988).
Counter-ions that a name gives are not always drawn. Like-named read-outs stand apart in the source and are kept apart here.

Key:
[1] = Example 2: complexing agents with hydrogen peroxide to oxidize and dissolve gallium arsenide (Table 3); settings: for effectiveness in reaction and dissolution of gallium arsenide: H2O2 as oxidizing agent
[2] = Example 4: oxidizing agents with N-methylnonanohydroxamic acid as complexing agent on gallium arsenide (Table 5); settings: 3.0 ml N-methylnonanohydroxamic acid as complexing agent
Experimental: A series of procedures were conducted to test effectiveness of various complexing agents with hydrogen peroxide to oxidize and effect dissolution of gallium arsenide. A 0.5 gram amount of GaAs powder was added to a 50 ml beaker with 20 ml deionized water. The complexing agent was added with stirring, followed by addition of 5 ml 30% hydrogen peroxide in water with stirring. Stirring was continued for about 10 minutes with gradual heating on a hot plate to 85° C., with observation for reaction. The mixtures were then allowed to stand at room temperature for about four days with observation for further changes, and the percentage of the starting gallium which had dissolved was determined by analysis of the liquid by atomic absorption.
Using the procedure of Example 2 and 3.0 ml of N-methylnonanohydroxamic acid as complexing agent, a number of oxidizing agents were employed with gallium arsenide, with results as reported in Table 5.

[3] = Hydrolysis of hydroxamic acids in gallium extraction, washing and stripping procedures (Table 2); type: physicochemical; settings: hydrolysis after gallium extraction, spectrophotographic analysis
Experimental: The extent of hydrolysis of some hydroxamic acids used in some gallium extraction, washing and stripping procedures was determined by spectrophotographic analysis of the solution after completion of the procedures, with results as reported in Table 2.
The procedures and further information on the hydrolytic stability of N-alkyl hydroxamic acids are reported in the aforesaid copending application Ser. No. 937,849. The hydrolytic stability of the N-alkyl hydroxamic acids is an advantage for their use in the present invention.

[4] = Aqueous solubilities of N-alkylalkano and N-H hydroxamic acids (Table 1); type: physicochemical
Excerpt: It is desirable that the N-organo hydroxamic acid have low solubility in water in order to effect ready separation of the chelated gallium from the aqueous oxidizing medium.
For the extraction to occur, it is necessary that the extractant have some slight solubility in the aqueous Ga-containing medium.

[5] = observation during about 10 min stirring with heating to 85° C., H2O2

Q: For [Na+].[OH-] [NaOH, sodium hydroxide], which “% Ga in Solution After 4 Days” value [1] is on record?
A: 100%

Q: Which “Initial Result: time to complete dissolution” value [1] does the source give for CC(=O)N(C)O [Nmethyl acetohydroxamic acid, N-methyl acetohydroxamic acid] here?
A: 5 min

Q: And the “Initial Result: % reacted in 10 min.” value ([1]; 0.80 grams, omitted heating, 10 min.)?
A: 90%

Q: And the “effectiveness in reaction and dissolution of gallium arsenide” value (shortened to “effectiveness”) [1]?
A: the chelated gallium does not readily separate from the aqueous oxidation medium

Q: And the “% Ga in Solution After 4 Days (omitted heating)” value ([1]; omitted heating, H2O2)?
A: 100%

Q: With Oc1cccc2cccnc12 [Oxine (8-hydroxy quinoline), 8-hydroxy quinoline] as the molecule, how does the “Initial Result” value [1] read?
A: Precipitate

Q: For O=S(=O)([O-])OOS(=O)(=O)[O-].[K+].[K+] [Potassium persulfate], which Result [2] is on record?
A: No reaction

Q: For O=P(O)(O)O [Potassium phosphate (K3 PO4), Potassium phosphate], which “% Ga in Solution After 4 Days” value [1] is on record?
A: 100%

Q: And the “Initial Result: time to complete reaction (secs)” value [1]?
A: 50

Q: Which “% Ga in Solution After 4 Days” value [1] does the source give for O=P([O-])([O-])OP(=O)([O-])OP(=O)([O-])[O-].[Na+].[Na+].[Na+].[Na+].[Na+] [Sodium Triphosphate] here?
A: 100%

Q: With O=C(O)CC(O)(CC(=O)O)C(=O)O [Sodium citrate] as the molecule, how does the “% Ga in Solution After 4 Days” value [1] read?
A: 100%

Q: For O=C(O)CN(CC(=O)O)CC(=O)O [Sodium nitrilo triacetate], which “% Ga in Solution After 4 Days” value [1] is on record?
A: 100%

Q: What about the “Initial Result: time to complete reaction” value ([1]; heating to 85° C., H2O2) of the same molecule?
A: 3 min

Q: With O=C(O)C(=O)O [Sodium oxalate] as the molecule, how does the “% Ga in Solution After 4 Days” value [1] read?
A: 100%

Q: And the “Initial Result: time to complete reaction” value ([1]; heating to 85° C., H2O2)?
A: 1 min

Q: And the “Initial Result” value [1, 5]?
A: small prec.

Q: Which results are given for O=P([O-])([O-])OP(=O)([O-])[O-].[Na+].[Na+].[Na+].[Na+] [Sodium pyrophosphate Na4 P2 O7, Sodium pyrophosphate]?
A: % Ga in Solution After 4 Days [1]: 100%; Initial Result [1]: white prec.; Initial Result: time to complete reaction (min) [1]: 3

Q: For CCCCCCCCCCCC(=O)NO [dodecanohydroxamic acid], which “effectiveness” value [1] is on record?
A: reaction did not occur

Q: What about the “Initial Result” value [1, 5] of the same molecule?
A: No reaction

Q: And the “% Ga in Solution After 4 Days (omitted heating)” value ([1]; omitted heating, H2O2)?
A: 100%

Q: What about the “Initial Result: time to complete reaction” value ([1]; with 10 ml 2-ethyl hexanol, omitted heating, H2O2) of the same molecule?
A: 360 min

Q: What about the “Initial Result in 15 min.” value ([1]; with 10 ml 2-ethyl hexanol, omitted heating, mild exotherm, 15 min.) of the same molecule?
A: Some reaction

Q: What about the “time for complete reaction” value ([1]; with a solvent (Test ε)) of the same molecule?
A: about 6 hours

Q: With BrBr [liquid bromine, bromine] as the molecule, how does the “Result: time to complete reaction, no heating” value ([2]; no heating) read?
A: 37 s

Q: What does the source list for CCCCCCCC(=O)NO [octanohydroxamic acid]?
A: Initial Result: % dissolved in 24 hrs. ([1]; 1.48 grams, omitted heating, 24 hrs.): 52.5%; % Ga in Solution After 4 Days (after addn. of 10 ml n-BuOH) ([1]; omitted heating, after addn. of 10 ml n-BuOH, H2O2): 100%

Q: Which “% Decomposition” value [3] does the source give for “N-ethyl naphthenohydroxamic acid [N--Ethyl naphthenohydroxamic acid]” here?
A: -0.53%

Q: Which “% Decomposition” value [3] does the source give for “N-methyl naphthenohydroxamic acid [N--Methyl naphthenohydroxamic acid]” here?
A: +0.14%

Q: And the “time to complete dissolution after addition to Test N mixture” value ([1]; 2.98 grams added to Test N mixture after no reaction in 11.5 min.)?
A: 60 s

Q: And the “effectiveness” value [1]?
A: rapid reaction and dissolution of the gallium arsenide

Q: For “N-n-propyl naphthenohydroxamic acid [N--Propyl naphthenohydroxamic acid]”, which “% Decomposition” value [3] is on record?
A: +0.74%

Q: With “naphthenohydroxamic acid [N--H naphthenohydroxamic acid, reference compound]” as the molecule, how does the “% Decomposition” value [3] read?
A: 45.0%

Q: What does the source list for neotridecanohydroxamic acid?
A: Solubility (25° C.) [4]: 328. ppm; Solubility (25° C.), molarity [4]: 1.43 × 10^-3 molarity

Q: Which results are given for “versatohydroxamic acid [versatohydroxamic acid (not N--alkyl), reference compound]”?
A: Solubility (25° C.) [4]: 1600. ppm; Solubility (25° C.), molarity [4]: 8.54 × 10^-3 molarity
